Test results as given in PubChem BioAssay (NCI).
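GI50: concentration for 50% inhibition of growth. TGI marks complete inhibition of growth.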

Columns and labels:
Assay in all cases: growth of human tumour cells (NCI), 384-well format
[1] = tested on: A498 renal
[2] = tested on: HL-60(TB) leukemia
[3] = tested on: KM12 colon
[4] = tested on: SF-295 CNS
[5] = tested on: CAKI-1 renal
[6] = tested on: NCI-H322M lung
[7] = tested on: NCI-H226 lung
[8] = tested on: HCT-116 colon
[9] = tested on: T-47D breast
[10] = tested on: HCT-15 colon
[11] = tested on: MDA-MB-468 breast
[12] = tested on: LOX IMVI melanoma
[13] = tested on: CCRF-CEM leukemia
[14] = tested on: SR leukemia
[15] = tested on: MCF7 breast
[16] = tested on: A549 NSCLC
[17] = tested on: U251 glioblastoma
[18] = tested on: SK-MEL-5 melanoma
[19] = tested on: PC-3 prostate
[20] = tested on: HOP-92 NSCLC
[21] = tested on: SK-MEL-28 melanoma
[22] = tested on: SF-539 CNS
[23] = tested on: SK-MEL-2 melanoma
[24] = tested on: IGROV1 ovarian
[25] = tested on: RXF 393 renal
[26] = tested on: DU-145 prostate
[27] = tested on: MDA-MB-231 breast
[28] = tested on: UACC-257 melanoma
[29] = tested on: NCI-H522 lung

Q: For `Cc1[nH]c(/C=C2\C(=O)Nc3ccc(S(=O)(=O)Cc4c(Cl)cccc4Cl)cc32)c(C)c1C(=O)N1CCC[C@@H]1CN1CCCC1`, which TGI [1] is on record?
A: 2.99 µM

Q: What about the GI50 [2] of the same molecule?
A: 2.11 µM

Q: What about the TGI [2] of the same molecule?
A: 3.54 µM

Q: And the GI50 [3]?
A: 0.445 µM

Q: And the TGI [3]?
A: 1.5 µM

Q: What about the GI50 [4] of the same molecule?
A: 1.32 µM

Q: What about the TGI [4] of the same molecule?
A: 2.59 µM

Q: And the GI50 [5]?
A: 1.53 µM

Q: What about the TGI [5] of the same molecule?
A: 2.86 µM

Q: And the GI50 [6]?
A: 1.75 µM

Q: What about the TGI [6] of the same molecule?
A: 3.15 µM

Q: What about the GI50 [7] of the same molecule?
A: 1.93 µM

Q: And the TGI [7]?
A: 3.34 µM

Q: And the GI50 [8]?
A: 1.56 µM

Q: And the TGI [8]?
A: 2.91 µM

Q: And the GI50 [9]?
A: 1.74 µM

Q: What about the TGI [9] of the same molecule?
A: 3.12 µM

Q: And the GI50 [10]?
A: 1.82 µM

Q: And the TGI [10]?
A: 3.23 µM

Q: What about the GI50 [11] of the same molecule?
A: 1.58 µM

Q: And the TGI [11]?
A: 2.93 µM

Q: And the GI50 [12]?
A: 2.02 µM

Q: And the TGI [12]?
A: 3.46 µM

Q: And the GI50 [13]?
A: 0.681 µM

Q: What about the TGI [13] of the same molecule?
A: 1.9 µM

Q: And the GI50 [14]?
A: 1.31 µM

Q: And the TGI [14]?
A: 2.59 µM

Q: And the GI50 [15]?
A: 1.75 µM

Q: What about the TGI [15] of the same molecule?
A: 3.13 µM

Q: What about the GI50 [16] of the same molecule?
A: 1.71 µM

Q: What about the TGI [16] of the same molecule?
A: 3.1 µM

Q: And the GI50 [17]?
A: 1.81 µM

Q: And the TGI [17]?
A: 3.22 µM

Q: What about the GI50 [18] of the same molecule?
A: 1.19 µM

Q: What about the TGI [18] of the same molecule?
A: 2.43 µM

Q: What about the GI50 [19] of the same molecule?
A: 1.72 µM

Q: And the TGI [19]?
A: 3.11 µM

Q: What about the GI50 [20] of the same molecule?
A: 1.88 µM

Q: And the TGI [20]?
A: 3.29 µM

Q: What about the GI50 [21] of the same molecule?
A: 1.75 µM

Q: What about the TGI [21] of the same molecule?
A: 3.13 µM

Q: And the GI50 [22]?
A: 1.74 µM

Q: What about the TGI [22] of the same molecule?
A: 3.12 µM

Q: What about the GI50 [23] of the same molecule?
A: 1.24 µM

Q: And the TGI [23]?
A: 2.49 µM

Q: And the GI50 [24]?
A: 1.71 µM

Q: And the TGI [24]?
A: 3.1 µM

Q: What about the GI50 [25] of the same molecule?
A: 1.65 µM

Q: What about the TGI [25] of the same molecule?
A: 3.01 µM

Q: And the GI50 [26]?
A: 1.85 µM

Q: What about the TGI [26] of the same molecule?
A: 3.25 µM

Q: What about the GI50 [27] of the same molecule?
A: 1.67 µM

Q: What about the TGI [27] of the same molecule?
A: 3.04 µM

Q: What about the GI50 [28] of the same molecule?
A: 1.42 µM

Q: And the TGI [28]?
A: 2.73 µM

Q: What about the GI50 [29] of the same molecule?
A: 1.98 µM

Q: What about the TGI [29] of the same molecule?
A: 3.4 µM
